# Read-outs that look alike come from different tables or passages of the source. Numbered stars: 1 amine (or outer) side, 2 acyl side, 3 side chain; on linkers, the order of the positions; unused ones are H or OH. Bridge positions count the residues as written; N and C are the ends. Square brackets hold non-standard residues; d marks the D form. Peptide text beside a SMILES is read from it. * marks the point of attachment. C20 diacid = O=C(O)CCCCCCCCCCCCCCCCCCC(=O)*; γGlu = O=C(O)[C@H](CCC(=O)[*:2])N[*:1]; NMeI = CC[C@H](C)[C@H](NC)C(=O)O; Sar = CNCC(=O)O
# Experiments:
# [1] = target: T1, human amylin receptor 3 (hAMYR3) consisting of hCTR2 co-expressed with human Receptor Activity Modifying Protein 3 (hRAMP3) (Homo sapiens, UniProt O60896+P30988); assay: hAMYR3 assay: induction of cAMP (AlphaScreen cAMP Assay kit) in COS7 cells expressing hAMYR3; format: cell-based
# T1 construct: expressed in transfected cells
# T1 sequence (P30988 25-474): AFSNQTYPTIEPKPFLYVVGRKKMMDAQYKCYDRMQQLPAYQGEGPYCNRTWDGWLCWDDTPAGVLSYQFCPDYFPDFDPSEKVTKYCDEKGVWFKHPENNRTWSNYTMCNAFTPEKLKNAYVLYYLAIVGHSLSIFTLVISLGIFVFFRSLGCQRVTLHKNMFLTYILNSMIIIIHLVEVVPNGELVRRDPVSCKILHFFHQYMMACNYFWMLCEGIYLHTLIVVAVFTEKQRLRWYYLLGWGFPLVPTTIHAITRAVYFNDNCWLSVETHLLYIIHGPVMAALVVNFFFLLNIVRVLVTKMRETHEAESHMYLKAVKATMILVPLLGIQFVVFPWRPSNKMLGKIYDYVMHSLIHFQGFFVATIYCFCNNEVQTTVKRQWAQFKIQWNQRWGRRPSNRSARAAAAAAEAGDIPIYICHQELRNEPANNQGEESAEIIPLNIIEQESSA
# T1 sequence (O60896 24-148 partner): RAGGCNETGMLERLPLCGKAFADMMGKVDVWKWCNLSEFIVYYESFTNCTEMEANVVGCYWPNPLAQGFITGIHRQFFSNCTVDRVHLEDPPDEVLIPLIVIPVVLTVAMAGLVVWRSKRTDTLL
# Method in brief: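 cAMP accumulation read by AlphaScreen in lysates of RAMP-naive COS7 cells stably transfected with hCTR2 plus hRAMP3. Cells exposed to peptide dilutions for 15 min, 37° C, with 100 µM IBMX; 4PL fitting gave EC50 and efficacy relative to pramlintide.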
# [2] = target: T2, human calcitonin receptor (hCTR2) (Homo sapiens, UniProt P30988); assay: hCTR2 assay: induction of cAMP (AlphaScreen cAMP Assay kit) in COS7 cells expressing hCTR2; format: cell-based
# T2 construct: expressed in transfected cells
# T2 sequence (P30988 25-474): T1 sequence (P30988 25-474)
# Method in brief: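 Peptide-induced cAMP in hCTR2-expressing COS7 cells, 15 min at 37° C with phosphodiesterase inhibitor IBMX (100 µM), detected by AlphaScreen; potency from 4PL curves.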
# [3] = Solubility assessment (turbidity absorbance at 325 nm); format: physicochemical; conditions: stock 2 mg/ml diluted 1:1, ambient temperature (typically 25°C), n=1; for Solubility, Acetate buffer pH 4: 100 mM acetate buffer pH 4.0; for Solubility, Acetate buffer pH 5: 100 mM acetate buffer pH 5.0; for Solubility, Histidine buffer pH 6: 100 mM histidine buffer pH 6.0; for Solubility, Histidine buffer pH 7: 100 mM histidine buffer pH 7.0; for Solubility, Phosphate buffer pH 6: 100 mM phosphate buffer pH 6.0; for Solubility, Phosphate buffer pH 7: 100 mM phosphate buffer pH 7.0; for Solubility, Phosphate buffer pH 7.5: 100 mM phosphate buffer pH7.5
# Method in brief: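 Turbidity read as absorbance at 325 nm (also 280 nm), single samples at ambient temperature (typically 25°C); ≤ 0.02 units counts as ≥ 1 mg/ml soluble. Samples made by 1:1 dilution of a 2 mg/ml acidic stock into 100 mM acetate, histidine or phosphate buffers, pH 4.0–7.5.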
# [4] = cAMP induction in COS7 cells expressing hAMYR3, average of a minimum of 3 determinations, read-out: hAMY R3 EC50
# [5] = cAMP induction in COS7 cells expressing hCTR2, average of a minimum of 3 determinations, read-out: hCTR2 EC50
"EC50 [1, 4]","EC50 [2, 5]",SMILES,EC50 [2],"Solubility, Acetate buffer pH 4 [3]","Solubility, Acetate buffer pH 5 [3]","Solubility, Histidine buffer pH 6 [3]","Solubility, Histidine buffer pH 7 [3]","Solubility, Phosphate buffer pH 6 [3]","Solubility, Phosphate buffer pH 7 [3]","Solubility, Phosphate buffer pH 7.5 [3]",EC50 [1]
0.11 nM,0.066 nM,"CC[C@H](C)[C@@H](C(=O)N[C@@H](CC(C)C)C(=O)N[C@@H](CO)C(=O)N[C@@H](CO)C(=O)N[C@H](C(=O)N[C@@H](CCC(=O)O)C(=O)N[C@H](C(=O)NCC(=O)N[C@@H](CO)C(=O)N[C@@H](CCC(=O)O)C(=O)N[C@H](C(=O)N1CCC[C@H]1C(N)=O)[C@@H](C)O)C(C)C)[C@@H](C)O)N(C)C(=O)[C@H](C)NC(=O)CN(C)C(=O)[C@H](Cc1ccccc1)NC(=O)[C@H](CO)NC(=O)[C@H](CO)NC(=O)[C@H](CO)NC(=O)[C@H](CO)NC(=O)[C@H](CCCNC(=N)N)NC(=O)[C@H](Cc1c[nH]cn1)NC(=O)[C@H](CC(C)C)NC(=O)[C@H](Cc1ccccc1)NC(=O)[C@H](CCC(=O)O)NC(=O)[C@H](C)NC(=O)[C@H](CC(C)C)NC(=O)[C@H](CCCNC(=N)N)NC(=O)[C@H](CC(=O)O)NC(=O)[C@@H](NC(=O)[C@H](C)NC(=O)[C@@H]1CSSC[C@H](NC(=O)[C@H](CCCNC(=N)N)NC(=O)CC[C@H](NC(=O)CCCCCCCCCCCCCCCCCCC(=O)O)C(=O)O)C(=O)N2CCC[C@H]2C(=O)N[C@@H]([C@@H](C)O)C(=O)N[C@@H](C)C(=O)N[C@@H]([C@@H](C)O)C(=O)N1)[C@@H](C)O [Compound 151, [19CD]-isoGlu-RC()PTATC()ATDRLAEFLHRSSSSF-Gly(Me)-A-Ile(Me)-LSSTEVGSETP-NH2] ({C20 diacid-γGlu}-RCPTATCATDRLAEFLHRSSSSF[Sar]A[NMeI]LSSTEVGSETP-NH2; disulfide 2-7)",–,SS (SS indicates solubility ≥ 1mg/ml),SS (SS indicates solubility ≥ 1mg/ml),SS (SS indicates solubility ≥ 1mg/ml),SS (SS indicates solubility ≥ 1mg/ml),SS (SS indicates solubility ≥ 1mg/ml),SS (SS indicates solubility ≥ 1mg/ml),SS (SS indicates solubility ≥ 1mg/ml),–
–,–,"CC[C@H](C)[C@@H](C(=O)N[C@@H](CC(C)C)C(=O)N[C@@H](CO)C(=O)N[C@@H](CO)C(=O)N[C@H](C(=O)N[C@@H](CC(N)=O)C(=O)N[C@H](C(=O)NCC(=O)N[C@@H](CO)C(=O)N[C@@H](CC(N)=O)C(=O)N[C@H](C(=O)N1CCC[C@H]1C(=O)NC)[C@@H](C)O)C(C)C)[C@@H](C)O)N(C)C(=O)[C@H](C)NC(=O)CN(C)C(=O)[C@H](Cc1ccccc1)NC(=O)[C@H](CC(N)=O)NC(=O)[C@H](CC(N)=O)NC(=O)[C@H](CO)NC(=O)[C@H](CO)NC(=O)[C@H](CCCNC(=N)N)NC(=O)[C@H](Cc1c[nH]cn1)NC(=O)[C@H](CC(C)C)NC(=O)[C@H](Cc1ccccc1)NC(=O)[C@H](CCC(=O)O)NC(=O)[C@H](C)NC(=O)[C@H](CC(C)C)NC(=O)[C@H](CCCNC(=N)N)NC(=O)[C@H](CCC(N)=O)NC(=O)[C@@H](NC(=O)[C@H](C)NC(=O)[C@@H]1CSSC[C@H](NC(=O)[C@H](CCCNC(=N)N)NC(=O)CC[C@H](NC(=O)CCCCCCCCCCCCCCCCCCC(=O)O)C(=O)O)C(=O)N[C@@H](CC(N)=O)C(=O)N[C@@H]([C@@H](C)O)C(=O)N[C@@H](C)C(=O)N[C@@H]([C@@H](C)O)C(=O)N1)[C@@H](C)O [Compound 152, [19CD]-isoGlu-RC()NTATC()ATQRLAEFLHRSSNNF-Gly(Me)-A-Ile(Me)-LSSTNVGSNTP-NHMe] ({C20 diacid-γGlu}-RCNTATCATQRLAEFLHRSSNNF[Sar]A[NMeI]LSSTNVGSNTP-NHMe; disulfide 2-7)",0.95 nM,SS (SS indicates solubility ≥ 1mg/ml),SS (SS indicates solubility ≥ 1mg/ml),SS (SS indicates solubility ≥ 1mg/ml),SS (SS indicates solubility ≥ 1mg/ml),SS (SS indicates solubility ≥ 1mg/ml),SS (SS indicates solubility ≥ 1mg/ml),SS (SS indicates solubility ≥ 1mg/ml),5.2 nM
6.1 nM,0.73 nM,"CC[C@H](C)[C@@H](C(=O)N[C@@H](CC(C)C)C(=O)N[C@@H](CO)C(=O)N[C@@H](CO)C(=O)N[C@H](C(=O)N[C@@H](CC(N)=O)C(=O)N[C@H](C(=O)NCC(=O)N[C@@H](CO)C(=O)N[C@@H](CC(N)=O)C(=O)N[C@H](C(=O)N1CCC[C@H]1C(=O)NC)[C@@H](C)O)C(C)C)[C@@H](C)O)N(C)C(=O)CN(C)C(=O)[C@H](Cc1ccccc1)NC(=O)[C@H](CC(N)=O)NC(=O)[C@H](CC(N)=O)NC(=O)[C@H](CO)NC(=O)[C@H](CO)NC(=O)[C@H](CCCNC(=N)N)NC(=O)[C@H](Cc1c[nH]cn1)NC(=O)[C@H](CC(C)C)NC(=O)[C@H](Cc1ccccc1)NC(=O)[C@H](CCC(=O)O)NC(=O)[C@H](C)NC(=O)[C@H](CC(C)C)NC(=O)[C@H](CCCNC(=N)N)NC(=O)[C@H](CCC(N)=O)NC(=O)[C@@H](NC(=O)[C@H](C)NC(=O)[C@@H]1CSSC[C@H](NC(=O)[C@H](CCCNC(=N)N)NC(=O)CC[C@H](NC(=O)CCCCCCCCCCCCCCCCCCC(=O)O)C(=O)O)C(=O)N[C@@H](CC(N)=O)C(=O)N[C@@H]([C@@H](C)O)C(=O)N[C@@H](C)C(=O)N[C@@H]([C@@H](C)O)C(=O)N1)[C@@H](C)O [Compound 153, [19CD]-isoGlu-RC()NTATC()ATQRLAEFLHRSSNNF-Gly(Me)-Ile(Me)-LSSTNVGSNTP-NHMe] ({C20 diacid-γGlu}-RCNTATCATQRLAEFLHRSSNNF[Sar][NMeI]LSSTNVGSNTP-NHMe; disulfide 2-7)",–,SS (SS indicates solubility ≥ 1mg/ml),SS (SS indicates solubility ≥ 1mg/ml),II (II indicates solubility ≤ 1 mg/ml),SS (SS indicates solubility ≥ 1mg/ml),SS (SS indicates solubility ≥ 1mg/ml),SS (SS indicates solubility ≥ 1mg/ml),SS (SS indicates solubility ≥ 1mg/ml),–

SMILES,"EC50 [1, 4]","EC50 [2, 5]",EC50 [2],"Solubility, Acetate buffer pH 4 [3]","Solubility, Acetate buffer pH 5 [3]","Solubility, Histidine buffer pH 6 [3]","Solubility, Histidine buffer pH 7 [3]","Solubility, Phosphate buffer pH 6 [3]","Solubility, Phosphate buffer pH 7 [3]","Solubility, Phosphate buffer pH 7.5 [3]",EC50 [1]
"CC[C@H](C)[C@@H](C(=O)N[C@@H](CC(C)C)C(=O)N[C@@H](CO)C(=O)N[C@@H](CO)C(=O)N[C@H](C(=O)N[C@@H](CCC(=O)O)C(=O)N[C@H](C(=O)NCC(=O)N[C@@H](CO)C(=O)N[C@@H](CCC(=O)O)C(=O)N[C@H](C(=O)N1CCC[C@H]1C(N)=O)[C@@H](C)O)C(C)C)[C@@H](C)O)N(C)C(=O)[C@H](C)NC(=O)CN(C)C(=O)[C@H](Cc1ccccc1)NC(=O)[C@H](CO)NC(=O)[C@H](CO)NC(=O)[C@H](CO)NC(=O)[C@H](CO)NC(=O)[C@H](CCCNC(=N)N)NC(=O)[C@H](Cc1c[nH]cn1)NC(=O)[C@H](CC(C)C)NC(=O)[C@H](Cc1ccccc1)NC(=O)[C@H](CCC(=O)O)NC(=O)[C@H](C)NC(=O)[C@H](CC(C)C)NC(=O)[C@H](CCCNC(=N)N)NC(=O)[C@H](CC(=O)O)NC(=O)[C@@H](NC(=O)[C@H](C)NC(=O)[C@@H]1CSSC[C@H](NC(=O)[C@H](CCCNC(=N)N)NC(=O)CC[C@H](NC(=O)CCCCCCCCCCCCCCCCCCC(=O)O)C(=O)O)C(=O)N[C@@H](CCC(=O)O)C(=O)N[C@@H]([C@@H](C)O)C(=O)N[C@@H](C)C(=O)N[C@@H]([C@@H](C)O)C(=O)N1)[C@@H](C)O [Compound 150, [19CD]-isoGlu-RC()ETATC()ATDRLAEFLHRSSSSF-Gly(Me)-A-Ile(Me)-LSSTEVGSETP-NH2] ({C20 diacid-γGlu}-RCETATCATDRLAEFLHRSSSSF[Sar]A[NMeI]LSSTEVGSETP-NH2; disulfide 2-7)",0.26 nM,–,0.16 nM,SS (SS indicates solubility ≥ 1mg/ml),SS (SS indicates solubility ≥ 1mg/ml),SS (SS indicates solubility ≥ 1mg/ml),SS (SS indicates solubility ≥ 1mg/ml),SS (SS indicates solubility ≥ 1mg/ml),SS (SS indicates solubility ≥ 1mg/ml),SS (SS indicates solubility ≥ 1mg/ml),–

# — patent publication EP3046573B1, “AMYLIN ANALOGUES” (Zealand Pharma A/S, priority 2013, dated 2015)
